Experimental data: patent US20120282710A1, “LIGAND BINDING DOMAINS OF NUCLEAR RECEPTORS IN CONTROLLABLE FORM AND METHODS INVOLVING THE SAME” (SANOFI, priority 2007, published 2012)
pEC50: −log10 of the molar value. Structures can show the parent of a compound that is named as a salt.

How the values were obtained:
RORαLBD protein = target: T1, RORαLBD protein (Homo sapiens, UniProt P35398); assay: co-factor recruitment fluorescence resonance energy transfer assay (FRET), Example 1; type: biochemical; conditions: for co-factor recruitment (fluorescence ratios at 665 nm and 612 nm): time resolved measurement, 20 nM RORαLBD, 400 nM biotin-labeled peptide, 2 hrs
T1 construct: made in house; host or cells: Sf9 insect cells (baculovirus, pVL1393)
T1 sequence (P35398 with tags, fused parts or gaps): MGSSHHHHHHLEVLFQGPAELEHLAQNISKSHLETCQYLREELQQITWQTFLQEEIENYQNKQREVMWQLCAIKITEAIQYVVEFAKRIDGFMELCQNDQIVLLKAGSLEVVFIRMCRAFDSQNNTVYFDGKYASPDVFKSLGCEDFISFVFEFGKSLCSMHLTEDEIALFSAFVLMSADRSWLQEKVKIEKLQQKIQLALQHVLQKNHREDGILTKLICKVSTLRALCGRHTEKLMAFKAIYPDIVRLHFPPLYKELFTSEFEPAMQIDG
Procedure: 20 nM RORαLBD protein labeled with equimolar amounts of fluorescent anti-6×His antibody were incubated with 400 nM of the respective biotin-labeled peptide and equimolar amounts of a streptavidin-tagged fluorophore in a buffer containing 50 mM Tris, 100 mM NaCl, 1 mM DTT and 0.1% BSA for 2 hrs.

[1] = target: T2, 6×His-RORalphaLBD protein (Homo sapiens, UniProt P35398); assay: TR-FRET assay measuring RORalphaLBD interaction with the LXXLL peptide SRC1−NR1+2, Example 2; type: biochemical; conditions: for binding of co-activator peptide SRC1−NR1+2 to RORα (increase in fluorescence intensity ratio): FIG. 2, increasing concentrations versus solvent only
T2 construct: made in house; host or cells: Sf9 insect cells (baculovirus, pVL1393)
T2 sequence (P35398 with tags, fused parts or gaps): T1 sequence (P35398 with tags, fused parts or gaps)
Source text: In this assay, RORα is detected by a specific antibody bound to FRET donor Europium (Eu). The co-activator (CA) is biotin labeled. The biotin label is detecting by streptavidin, which encompasses the FRET acceptor allophycocyanin (APC) marker. If an agonist is bound to RORα, the NR is activated a CA binds to the NR. Accordingly, APC is brought into proximity of Eu, leading to a detecting FRET signal (left panel).
TR-FRET Assay Measuring RORalphaLBD Interaction with the LXXLL Peptide, SRC1−NR1+2
• 6×His-RORalpha: • source: Protein Production (Lab. Thomas Langer) treated with 3 mM LDS, stock solution at 1.5 mg/ml, storage at −20° C., pipetting at room temperature, corresponding to 47.5 μM (with MW 31.6 kD), Concentration in the assay=20 nM • SRC1−NR1+2: • source: JPT Peptide Technologies, stock solution at 250 μM, storage at −20° C., concentration in the assay=400 nM
• anti-6×His antibody: • source: Perkin Elmer #AD0110, stock solutions are at varying concentration with each batch, storage at −20° C., concentration in the assay=20 nM • strep-APC: • source: Perkin Elmer #AD0201, stock solutions are at varying concentration with each batch, storage at +4° C. after reconstitution, concentration in the assay=200 nM (based on streptavidin)
• Cholesterol sulfate: • source: SIGMA #C9523, stock solution in DMSO (30 mM), storage at −20° C.
• 50 mM Tris, 100 mM NaCl, 1 mM DTT, 0.1% Bovine Serum Albumin (add BSA fresh each day), adjust pH to 7.4
• Test plates: CORNING Costar #3639 (96 well half area)
All proteins, labels and compounds were diluted in the assay buffer just prior to assay setup. This assay was realised in 96 well half area plates. The final test volume was 20 μl. It is divided in 2 pipetting steps:
First, a mix containing 6×His-RORalphaLBD protein, BiotinSRC1−NR1+2 peptide, anti-6×His antibody and strep-APC was prepared on ice in the following concentrations: […]
The plates were incubated for 2 h in subdued light at room temperature and read on a Tecan ULTRA at room temperature with 340 nm excitation and 612 nm as Europium reference and 665 nm as APC FRET signal.

Row | SMILES | co-factor recruitment (fluorescence ratios at 665 nm and 612 nm) (RORαLBD protein) | binding of co-activator peptide SRC1−NR1+2 to RORα (increase in fluorescence intensity ratio) [1] | pEC50 (RORαLBD protein) | pEC50 [1]
1 | CC(C)CCC[C@@H](C)[C@H]1CC[C@H]2[C@@H]3CC=C4C[C@@H](O)CC[C@]4(C)[C@H]3CC[C@]12C [Cholesterol] | dose-dependent co-factor recruitment | dose-dependently induce binding |  | 
2 | CC(C)CCC[C@@H](C)[C@H]1CC[C@H]2[C@@H]3CC=C4C[C@@H](OS(=O)(=O)O)CC[C@]4(C)[C@H]3CC[C@]12C [Cholesterol sulfate] | dose-dependent co-factor recruitment | dose-dependently induce binding | 4.66 | ~5.00
